In brackets after ≈: the same amount, converted by molar mass. Activity calls are given as the source filed them. The rule behind the calls is not given here.
Key:
Staphylococcus aureus [1] = experiment: Antimicrobial activity against methicillin-susceptible Staphylococcus aureus ATCC29213 measured after 24 hrs by CLSI protocol based microdilution method; type: functional
[2] = target: T1, Enoyl-[acyl-carrier-protein] reductase [NADPH] FabI (Staphylococcus aureus, UniProt Q6GI75); experiment: Inhibition of N-terminal his 6 tagged Staphylococcus aureus Fabi (1 to […] residues) expressed in Escherichia coli BL21 incubated for 30 mins in presence of NADPH by fluorescence based microplate reader analysis
T1 sequence (Q6GI75 whole entry): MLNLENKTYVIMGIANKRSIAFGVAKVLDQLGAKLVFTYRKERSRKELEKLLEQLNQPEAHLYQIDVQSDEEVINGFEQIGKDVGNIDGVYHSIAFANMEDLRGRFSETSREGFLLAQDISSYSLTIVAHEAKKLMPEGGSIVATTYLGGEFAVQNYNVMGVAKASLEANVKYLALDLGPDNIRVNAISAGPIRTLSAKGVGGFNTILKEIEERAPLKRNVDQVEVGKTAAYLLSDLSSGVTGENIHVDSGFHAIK

Staphylococcus aureus [3] = experiment: In vivo antibacterial activity against methicilin-resistant Staphylococcus aureus ATCC33591 infected in BALB/c mouse skin infection model assessed as log reduction in bacterial count at 10 mg/kg administered daily for 4 days; type: functional; details: time 4 day
Staphylococcus aureus [4] = experiment: Antimicrobial activity against […] Staphylococcus aureus ATCC33591 assessed as frequency of spontaneous resistance at 16 times MIC measured after 48 hrs by; type: functional
Staphylococcus aureus [5] = experiment: Antimicrobial activity against […] Staphylococcus aureus ATCC33591 measured after 24 hrs by CLSI protocol based microdilution method; type: functional
Staphylococcus aureus [6] = experiment: Antimicrobial activity against […] Staphylococcus aureus NRS271 measured after 24 hrs by CLSI protocol based microdilution method; type: functional
Staphylococcus aureus [7] = experiment: Antimicrobial activity against […] Staphylococcus aureus ATCC33591 assessed as frequency of spontaneous resistance at 4 times MIC measured after 48 hrs by; type: functional
Staphylococcus aureus [8] = experiment: In vivo antibacterial activity against methicilin-resistant Staphylococcus aureus ATCC33591 infected in BALB/c mouse skin infection model assessed as normal skin structure at 10 mg/kg administered daily for 4 days by H and E staining based analysis; type: functional, organism-based; details: time 4.0 day
Staphylococcus aureus [9] = experiment: Antimicrobial activity against […] Staphylococcus aureus USA300 measured after 24 hrs by CLSI protocol based microdilution method; type: functional
[10] = target: T2, Enoyl-[acyl-carrier-protein] reductase [NADPH] FabI (Staphylococcus aureus) (UniProt Q6GI75); experiment: Binding affinity to N-terminal his 6 tagged Staphylococcus aureus Fabi (1 to […] residues) expressed in Escherichia coli BL21 assessed as change in melting temperature at 80 uM incubated for 20 mins in presence of NADPH by differential scanning fluorescence assay
T2 sequence (whole entry): T1 sequence (Q6GI75 whole entry)

Staphylococcus aureus [11] = experiment: In vivo antibacterial activity against methicilin-resistant Staphylococcus aureus ATCC33591 infected in BALB/c mouse skin infection model assessed as reduction in skin lesions at 10 mg/kg administered daily for 4 days (reference value: 48.3 mm2); type: functional; details: time 4 day
Staphylococcus aureus [12] = experiment: Antimicrobial activity against […] Staphylococcus aureus ATCC43300 measured after 24 hrs by CLSI protocol based microdilution method; type: functional
[13] = target: T2, Enoyl-[acyl-carrier-protein] reductase [NADPH] FabI (Staphylococcus aureus); experiment: Inhibition of N-terminal his 6 tagged Staphylococcus aureus Fabi (1 to […] residues) expressed in Escherichia coli BL21 at 1 uM incubated for 30 mins in presence of NADPH by fluorescence based microplate reader analysis relative to control
Staphylococcus aureus [14] = experiment: Antimicrobial activity against methicillin-susceptible Staphylococcus aureus ATCC25923 measured after 24 hrs by CLSI protocol based microdilution method; type: functional
Staphylococcus aureus [15] = experiment: In vivo antibacterial activity against methicilin-resistant Staphylococcus aureus ATCC33591 infected in BALB/c mouse skin infection model assessed as normal morphology at 10 mg/kg administered daily for 4 days by H and E staining based analysis; type: functional, organism-based; details: time 4.0 day
Staphylococcus aureus [16] = experiment: Antimicrobial activity against […] Staphylococcus aureus ATCC33591 assessed as frequency of spontaneous resistance at 8 times MIC measured after 48 hrs by; type: functional

Cc1c(Br)cccc1N1C[C@@H](c2nc3ccccc3n2C)CC1=O
MIC (Staphylococcus aureus [1]): 0.5 µg/mL (≈ 1.3 µM)
IC50 [2]: 94 nM
log(activity) (Staphylococcus aureus [3]): 6.8
Activity (Staphylococcus aureus [4]): <2.6 10^-10No_unit
MIC (Staphylococcus aureus [5]): 0.25 µg/mL (≈ 0.651 µM)
MIC (Staphylococcus aureus [6]): 1 µg/mL (≈ 2.6 µM)
Activity (Staphylococcus aureus [7]): 3.8 10^-10No_unit
Activity (Staphylococcus aureus [8]): Active
MIC (Staphylococcus aureus [9]): 0.5 µg/mL (≈ 1.3 µM)
ΔTm [10]: 14.3 °C
Activity (Staphylococcus aureus [11]): 16.1 mm2
MIC (Staphylococcus aureus [12]): 0.5 µg/mL (≈ 1.3 µM)
inhibition [13]: > 85%
MIC (Staphylococcus aureus [14]): 0.5 µg/mL (≈ 1.3 µM)
Activity (Staphylococcus aureus [15]): Active
Activity (Staphylococcus aureus [16]): <2.6 10^-10No_unit
